From publication PMC10269604, “A 4-Hydroxybenzoic Acid-Mediated Signaling System Controls the Physiology and Virulence of Shigella sonnei” (Microbiology Spectrum, 2023)

Experiments:
[1] = molecular target: AaeR (SSON_3385); conditions: AaeR labelled with L014 Monolith protein labeling kit; 60% LED power, 40% MST power
[2] = molecular target: T1, UbiC (SSON_4219) (Shigella sonnei, UniProt Q3YUU5); assay: in vitro conversion to 4-HBA; type: biochemical; conditions: product 4-hydroxybenzoic acid
T1 construct: intact ubiC gene in pET28a(+), His-tagged fusion, expressed in E. coli BL21(DE3), His-Tag column
T1 sequence (Q3YUU5 whole entry, the tested form may be a part): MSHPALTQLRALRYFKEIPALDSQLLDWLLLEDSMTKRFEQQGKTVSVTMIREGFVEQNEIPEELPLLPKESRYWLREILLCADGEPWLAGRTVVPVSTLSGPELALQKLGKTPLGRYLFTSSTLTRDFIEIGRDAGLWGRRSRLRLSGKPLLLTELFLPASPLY

SMILES | Kd [1] | in vitro conversion to 4-HBA [2]
O=C(O)c1ccc(O)cc1 [4-hydroxybenzoic acid] | 23.1 ± 0.76 µM | 
C=C(O[C@@H]1C=C(C(=O)O)C=C[C@H]1O)C(=O)O [chorismic acid] |  | UbiC directly catalyzed the conversion of chorismic acid to 4-HBA
